These results are taken from patent publication US20070203066A1, “Compositions and methods for inhibiting cellular proliferation” (priority 2005, published 2007).

As usually defined, the IC50 is the concentration needed to halve the response being measured.

Non-standard residues stand in square brackets, D forms with d. Primed or numbered codes have the meaning given here. No end group written: not given here. *: point of attachment. Ida = iminodiacetic acid linker, its two carboxyls bind the Lys side-chain amines of two peptides, giving a homodimer; Ida(3) = iminodiacetic acid linker, Lys side-chain amines bound to its two carboxyl groups; Ida(4) = iminodiacetic acid linker (dimerization linker bound to lysine side chain); Biotin = O=C1N[C@H]2[C@H](CS[C@H]2CCCCC(=O)*)N1

This assay deals with HUVECs. In kind it is cell-based. The conditions noted are these: HUVEC proliferation, bFGF at 10 ng/ml or VEGF at 5 ng/ml, 48 hours, BrdU incorporation; read-out: IC50 on HUVECs. Summed up:
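Proliferation read-out: BrdU incorporation after 48-hour culture (37 ° C, 5% CO2) with graded peptide doses. Cells were in EBM with 2% FCS at 5,000 per well, driven by VEGF (5 ng/ml) or bFGF (10 ng/ml), added after ≥12-hour attachment.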
For orientation: Dividing cells build labelled thymidine or BrdU into new DNA.
“325 (Ac-RRRHRQHVRIYFK; not fully specified (residue 13, C-terminus); also: homodimer via Ida linker on Lys13 side chain) [compound 325]”: the IC50 was less than 10 µM.
Take “366 (Ac-ARRRRQRVAHYFK-NH2; not fully specified (residue 13); also: homodimer of residues 1-13 via Ida linker on K13 side chain) [compound 366]”: the half-inhibitory concentration (IC50) was greater than 30 µM.
Then “264 (Ac-[dA]RRRRQRVAIIFK-NH2; not fully specified (residue 13); also: homodimer via Ida linker on Lys13 side chains) [compound 264]”, with less than 10 µM.
Then “478 (Ac-PRRRTQAVAIYFK(Ida(3)); not fully specified (C-terminus); also: homodimer via Ida linker on Lys13 side chain) [compound 478]”, with 10 to 30 µM.
As for KAARKRKKQRVKIAYEEIFVQNM [compound 56], the figure is 10 to 30 µM; as for KTKRKRKKQRYEEIFVQNM [compound 30], greater than 30 µM; as for “454 (Ac-SRRRRQAVAIVFK-NH2; not fully specified (residue 13); also: homodimer via Ida linker at K13) [compound 454]”, less than 10 µM.
Take “442 (Ac-RRRRVQAVAIYFK(Ida(4)); not fully specified (C-terminus); also: homodimer via Ida linker at K13) [compound 442]”: the IC50 is less than 10 µM.
Then KTKRKRKKQRVKIIFVQAM [compound 106], with less than 10 µM; and “281 (Ac-RRRRHQAVAIYFK-NH2; not fully specified (residue 13); also: homodimer via Ida linker on Lys13 side chain) [compound 281]”, with less than 10 µM.
For “51 (Ac-KTKRKRKKQRVKIAYEEIFVQNMK; also: homodimer via Ida linker on Lys24 side chain) [compound 51]”, the IC50 is less than 10 µM.
For the substance “402 (Ac-FRRRRQAVAIYFK(Ida(3))-NH2; also: homodimer via Ida linker on Lys13 side chain, Ida amine Boc) [compound 402]”, the IC50 is less than 10 µM.
As for “327 (XHRRRQHVRIYFK; not fully specified; Xaa = Acylated Histidine; The side chain of Lysine at position 13 is covalently bound to an Ida linker forming a homodimer of residues 1 through 13.) [compound 327]”, the figure is less than 10 µM; as for “423 (Ac-ARRRRQRVAIKFV; not fully specified (residue 11); also: homodimer of residues 1-13 via Ida linker on K11 side chain) [compound 423]”, less than 10 µM; as for “216 (Ac-ARRRRQAVAIIF; also: dimer: Phe C-termini joined via Lys linker) [compound 216]”, 10 to 30 µM.
Then “356 (Ac-A[dR]RRRQRVAIIFK; not fully specified) [compound 356]”, with greater than 30 µM; and KRKKQRVKIAYEEIFVQNM [compound 22], with greater than 30 µM; and KNKSKGVVKIQRRKAPFVVYESIN [compound 7], with greater than 30 µM.
Regarding “443 (Ac-RRRRWQAVAIYFK(Ida(4)); not fully specified (C-terminus); also: homodimer via Ida linker at K13) [compound 443]”, the IC50 was less than 10 µM.
In the case of “464 (Ac-ARRERQAVAIYFK(Ida(3)); not fully specified (C-terminus); also: homodimer via Ida linker on Lys side chains, linker at 13 via Ida, other end not in the chain) [compound 464]”, the concentration for half-maximal inhibition (IC50) was less than 10 µM.
Turning to RKKQRVKIAYEEIFVQNM [compound 23], the IC50 lay within 10 to 30 µM.
With “300 (Ac-RRRRRQAVRIPIPFK-NH2; not fully specified (residue 15); also: homodimer: Lys15 side chain bound to Ida linker) [compound 300]”, the concentration for half-maximal inhibition (IC50) was in the range of 10 to 30 µM.
Then “501 (Ac-PRRERQAVAIYFK; not fully specified (residue 13, C-terminus); also: homodimer via Ida linker on Lys13 side chain) [compound 501]”, with less than 10 µM; and “452 (Ac-PRRRRQAVAIVFK-NH2; not fully specified (residue 13); also: homodimer via Ida linker at K13) [compound 452]”, with less than 10 µM; and “190 (Ac-RRRRRQRVHIIF; also: dimer: C-terminal Phe bound to an amino group of a Lys linker, 2 chains per Lys) [compound 190]”, with less than 10 µM.
Then “251 (Ac-RRRRRQAVAIPFK; not fully specified (C-terminus); also: homodimer: side chain of Lys13 bound to an Ida linker) [compound 251]”, with greater than 30 µM; and “412 (Ac-VRRRRQAVAIYFK; not fully specified (residue 13, C-terminus); also: homodimer via Ida linker on Lys side chains, linker at 13 via Ida, other end not in the chain) [compound 412]”, with less than 10 µM; and “263 (Ac-A[dR]RRRQRVAIIFK-NH2; not fully specified (residue 13); also: homodimer via Ida linker on Lys13 side chains) [compound 263]”, with less than 10 µM.
Regarding “388 (Ac-ARRRRQAVFIYFK-NH2; not fully specified (residue 13); also: homodimer via Ida linker on Lys13 side chain, Ida amine Boc) [compound 388]”, the half-inhibitory concentration (IC50) is less than 10 µM.
As for “503 (Ac-PRRLRQAVAIYFK; not fully specified (residue 13, C-terminus); also: homodimer via Ida linker on Lys13 side chain) [compound 503]”, the figure is less than 10 µM.
KRKKQRVKIAYEEIFV [compound 63]: the IC50 is less than 10 µM.
As for “266 (Ac-RRRRRQAVAIWFK; not fully specified (C-terminus); also: homodimer: side chain of Lys13 bound to an Ida linker) [compound 266]”, the figure is less than 10 µM; as for “455 (Ac-TRRRRQAVAIVFK-NH2; not fully specified (residue 13); also: homodimer via Ida linker at K13) [compound 455]”, less than 10 µM.
As for RKKQRVKIAYEEIFVKNM [compound 11], the figure is greater than 30 µM; as for KTKRKRVKIAYEEIFVQNM [compound 52], greater than 30 µM; as for “258 (Ac-ARRRRQ[dR]VAIIFK-NH2; not fully specified (residue 13); also: homodimer via Ida linker on Lys13 side chains) [compound 258]”, less than 10 µM.
Then “329 (Ac-ARRRRQRVAIYFK-NH2; not fully specified (residue 13); also: homodimer via Lys13 side chain, GP3 linker) [compound 329]”, with less than 10 µM; and “198 (Ac-RARARQRVRIIF; also: dimer: C-terminal Phe bound to an amino group of a Lys linker, 2 chains per Lys) [compound 198]”, with less than 10 µM.
With “410 (Ac-SRRRRQAVAIYFK; not fully specified (residue 13, C-terminus); also: homodimer via Ida linker on Lys side chains, linker at 13 via Ida, other end not in the chain) [compound 410]”, the concentration for half-maximal inhibition (IC50) is less than 10 µM.
Consider “199 (Ac-RARRAQRVRIIF; also: dimer: C-terminal Phe bound to an amino group of a Lys linker, 2 chains per Lys) [compound 199]”, for which the IC50 is less than 10 µM.
Then “166 (Biotin-TKRKRKKQRVKIIFV; also: Thr1 biotinylated) [compound 166]”, with 10 to 30 µM; and “340 (Ac-RRHRHQHVRIYFK(Ida(3))-NH2; also: homodimer via Lys13 side chain, Ida linker (Ida amino group Boc)) [compound 340]”, with less than 10 µM.
As for “323 (Ac-RHRRRQHVRIYFK(Ida)-NH2; also: homodimer via Ida linker on Lys13 side chain) [compound 323]”, the figure is less than 10 µM; as for “339 (Ac-RRHHRQHVRIYFK(Ida(3))-NH2; also: homodimer via Lys13 side chain, Ida linker (Ida amino group Boc)) [compound 339]”, less than 10 µM.
As for “177 (Ac-RRRRAQRVRIIF; also: homodimer via C-terminal Lys linker) [compound 177]”, the figure is less than 10 µM; as for “191 (Ac-AARRRQRVRIIF; also: dimer: C-terminal Phe bound to an amino group of a Lys linker, 2 chains per Lys) [compound 191]”, less than 10 µM.
Take “476 (Ac-PRRRPQAVAIYFK(Ida(3)); not fully specified (C-terminus); also: homodimer via Ida linker on Lys13 side chain) [compound 476]”: the IC50 was less than 10 µM.
Regarding KRKRKKQQRVKIAYEEIFV [compound 75], the IC50 is 10 to 30 µM.
As for “334 (Ac-ARRRRQRVAIYFK; not fully specified (residue 13, C-terminus); also: homodimer via Ida linker on Lys13 side chain, acetate salt) [compound 334]”, the figure is less than 10 µM.
